What was measured:
Assay type in all cases: cell-based
[1] = tested on: MCF-7 human breast adenocarcinoma cells; assay: In vitro antiproliferative assay (SRB), MCF-7; conditions: for IC50: Homo sapiens, MCF7, MCF-7, 72 h exposure, SRB, mean ± SD; for Calculated selectivity index SIB: IC50 BALB/3T3/IC50 MCF-7; for Calculated selectivity index SIA: IC50 HLMEC/IC50 MCF-7
From the text: (§1) The following established in vitro cell lines were applied: human breast adenocarcinoma (MCF-7 and SK-BR-3), human breast ductal carcinoma (T47D), human prostate adenocarcinoma (PC-3), human prostate carcinoma (Du145), human colorectal adenocarcinoma (HT-29 and LoVo), doxorubicin-resistant human colorectal adenocarcinoma (LoVo/Dx), human myelomonocytic leukemia (MV-4-11), human lung adenocarcinoma (A549), normal murine embryonic fibroblasts (BALB/3T3) and human lung microvascular endothelial (HLMEC). All the cell lines were obtained from the American Type Culture Collection (Rockville, MD, USA) except for LoVo and LoVo/DX, which were received from the Technical University of Gdańsk, Poland, courtesy of Prof. E. Borowski. All the cell lines were maintained in the Institute of Immunology and Experimental Therapy, Wroclaw, Poland. The cells were cultured in the following media: DMEM medium (BALB/3T3), Eagle medium (MCF-7, SK-BR-3, Du145), RPMI medium (HLMEC, MV-4-11) or RPMI 1640 + Opti-MEM (1:1) medium (A549, T47D, LoVo, LoVo/Dx, PC-3, HT-29). The DMEM medium was supplemented with 2 mM L-glutamine and 10% fetal bovine serum. The Eagle medium was supplemented with 4 mM L-glutamine, 10% fetal bovine serum, 1 mM sodium pyruvate for Du145 cells or 2 mM L-glutamine, 1% amino acids and 0.8 mg L^−1 of insulin for MCF-7 and SK-BR-3. The RPMI medium was supplemented with 2 mM L-glutamine, 1 mM sodium pyruvate and 10% fetal bovine serum. The RPMI 1640 + Opti-MEM (1:1) medium was supplemented with 2 mM L-glutamine, 5% fetal bovine serum (PC-3, A549) and 0.8 mg L^−1 insulin (T47D) or 1 mM sodium pyruvate (HT-29, LoVo, LoVoDx) and 0.1 ug/mL doxorubicin (LoVo/Dx). The media contained antibiotics: 100 µg mL^−1 streptomycin and 100 U mL^−1 penicillin. All the cell lines were incubated at 37 °C in a humid atmosphere saturated with 5% CO2.
(§2) The details of this technique were described by Skehan et al.. After 72 h of incubation with the tested compounds, the cells were fixed in situ by gently adding cold 50% trichloroacetic acid—TCA (50 µL per well). The plates were incubated at 4 °C for 1 h and then washed five times with tap water and air-dried. Next, the cellular material fixed with TCA was stained by adding 50 µL of 0.4% sulforhodamine B dissolved in 1% acetic acid to each well and incubating the wells for 30 min at room temperature. The unbound dye was removed by washing the plates five times with 1% acetic acid, whereas the stain bound to the cells was extracted with 150 µL of 10 mM unbuffered Tris base for determination of the optical density at a 540 nm wavelength in a computer-interfaced, 96-well microtiter plate reader–Multiskan FC photometer (Thermo Scientific, Waltham, MA, USA). The background optical density was measured in the wells filled with culture medium, without the cells.
(§3) Twenty-four hours before incubation with the tested compounds, the cells were seeded in 96-well plates (Sarstedt, Nümbrecht, Germany) at a density of 10^4 cells per well (10^3 cells per well for HLMEC) in 100 µL of culture medium. The analysis of the antiproliferative activity of the compounds was performed using sulforhothamine B (SRB) (for all the adherent cells) or 3-(4,5-dimethylthiazol-2-yl)-2,5-diphenyl tetrazolium bromide (MTT) (for the leukemia cells—MV-4-11). The details of this technique have been previously described by Skehan et al. and Antoszak et al.. An assay was performed after 72 h of exposure at varying concentrations (from 0.1 to 100 µg mL^−1) of xanthohumol (1), aurone (2) and the reference drug cisplatin. Each compound at each concentration was tested in a single experiment, which was repeated at least 3 times. […] The results were calculated as the IC50 (μM) (half maximal inhibitory concentration), i.e., the concentration of the tested agent that inhibits the proliferation of the cancer cell population by half. […]

[2] = tested on: SK-BR-3 human breast adenocarcinoma cells; assay: In vitro antiproliferative assay (SRB), SK-BR-3; conditions: for IC50: Homo sapiens, SK-BR-3, 72 h exposure, SRB, mean ± SD; for Calculated selectivity index SIB: IC50 BALB/3T3/IC50 SK-BR-3; for Calculated selectivity index SIA: IC50 HLMEC/IC50 SK-BR-3
From the text: as §1, §2, §3

[3] = tested on: T47D human breast ductal carcinoma cells; assay: In vitro antiproliferative assay (SRB), T47D; conditions: for IC50: Homo sapiens, T47D, 72 h exposure, SRB, mean ± SD; for Calculated selectivity index SIB: IC50 BALB/3T3/IC50 T47D; for Calculated selectivity index SIA: IC50 HLMEC/IC50 T47D
From the text: as §1, §2, §3

[4] = tested on: HT-29 human colorectal adenocarcinoma cells; assay: In vitro antiproliferative assay (SRB), HT-29; conditions: for IC50: HT-29, 72 h exposure, SRB, mean ± SD; for Calculated selectivity index SIB: IC50 BALB/3T3/IC50 HT-29; for Calculated selectivity index SIA: IC50 HLMEC/IC50 HT-29
From the text: as §1, §2, §3

[5] = tested on: LoVo human colorectal adenocarcinoma cells; assay: In vitro antiproliferative assay (SRB), LoVo; conditions: for IC50: Homo sapiens, LoVo, 72 h exposure, SRB, mean ± SD; for Calculated selectivity index SIB: IC50 BALB/3T3/IC50 LoVo; for Calculated selectivity index SIA: IC50 HLMEC/IC50 LoVo
From the text: as §1, §2, §3

[6] = tested on: LoVo/Dx doxorubicin-resistant human colorectal adenocarcinoma cells; assay: In vitro antiproliferative assay (SRB), LoVo/Dx; conditions: for IC50: Homo sapiens, LoVo/Dx, 72 h exposure, SRB, mean ± SD; for Calculated selectivity index SIB: IC50 BALB/3T3/IC50 LoVo/Dx; for Calculated selectivity index SIA: IC50 HLMEC/IC50 LoVo/Dx
From the text: as §1, §2, §3

[7] = tested on: PC-3 human prostate adenocarcinoma cells; assay: In vitro antiproliferative assay (SRB), PC-3; conditions: for IC50: Homo sapiens, PC-3, 72 h exposure, SRB, mean ± SD; for Calculated selectivity index SIB: IC50 BALB/3T3/IC50 PC-3; for Calculated selectivity index SIA: IC50 HLMEC/IC50 PC-3
From the text: as §1, §2, §3

[8] = tested on: A549 human lung adenocarcinoma cells; assay: In vitro antiproliferative assay (SRB), A549; conditions: for IC50: Homo sapiens, A549, 72 h exposure, SRB, mean ± SD; for Calculated selectivity index SIB: IC50 BALB/3T3/IC50 A549; for Calculated selectivity index SIA: IC50 HLMEC/IC50 A549
From the text: as §1, §2, §3

[9] = tested on: human lung microvascular endothelial (HLMEC) cells; assay: In vitro cytotoxicity against normal cells (SRB), HLMEC; conditions: for IC50: Homo sapiens, HLMEC normal cell line, 72 h exposure, SRB, mean ± SD, read-out: Antiproliferative activity IC50
From the text: as §1
(§4) The details of this technique were described by Skehan et al.. […] The unbound dye was removed by washing the plates five times with 1% acetic acid, whereas the stain bound to the cells was extracted with 150 µL of 10 mM unbuffered Tris base for determination of the optical density at a 540 nm wavelength in a computer-interfaced, 96-well microtiter plate reader–Multiskan FC photometer (Thermo Scientific, Waltham, MA, USA). The background optical density was measured in the wells filled with culture medium, without the cells.
(§5) Twenty-four hours before incubation with the tested compounds, the cells were seeded in 96-well plates (Sarstedt, Nümbrecht, Germany) at a density of 10^4 cells per well (10^3 cells per well for HLMEC) in 100 µL of culture medium. […] The results were calculated as the IC50 (μM) (half maximal inhibitory concentration), i.e., the concentration of the tested agent that inhibits the proliferation of the cancer cell population by half. […]

[10] = tested on: normal murine embryonic fibroblasts (BALB/3T3); assay: In vitro cytotoxicity against normal cells (SRB), BALB/3T3; conditions: BALB/3T3; for IC50: Mus musculus, BALB3T3 normal cell line, 72 h exposure, SRB, mean ± SD, read-out: Antiproliferative activity IC50
From the text: as §1, §4, §5

| Compound | IC50 [1] | Calculated selectivity index SIB [1] | Calculated selectivity index SIA [1] | IC50 [2] | Calculated selectivity index SIB [2] | Calculated selectivity index SIA [2] | IC50 [3] | Calculated selectivity index SIB [3] | Calculated selectivity index SIA [3] | IC50 ([4]; Homo sapiens, HT-29, 72 h) | Calculated selectivity index SIB [4] | Calculated selectivity index SIA [4] | IC50 [5] | Calculated selectivity index SIB [5] | Calculated selectivity index SIA [5] | IC50 [6] | Calculated selectivity index SIB [6] | Calculated selectivity index SIA [6] | IC50 [7] | Calculated selectivity index SIB [7] | other results |
| --- | --- | --- | --- | --- | --- | --- | --- | --- | --- | --- | --- | --- | --- | --- | --- | --- | --- | --- | --- | --- | --- |
| COc1cc(O)c(CC=C(C)C)c(O)c1C(=O)/C=C/c1ccc(O)cc1 [compound 1, 3′-[3″,3″-dimethylallyl]-2′,4′,4-trihydroxy-6′-methoxychalcone] | 9.29 ± 0.27 µM | 2.11 | 3.91 | 12.6 ± 2.28 µM | 1.56 | 2.89 | 8.27 ± 1.23 µM | 2.37 | 4.39 | > 50 µM | 0.21 | 0.40 | 5.53 ± 1.64 µM | 3.55 | 6.56 | 7.28 ± 1.22 µM | 2.70 | 4.99 | 9.15 ± 0.88 µM | 2.14 | IC50 ([4]; listed as xanthohumol (1)): 91.3 ± 8.92 µM; Calculated selectivity index SIA [7]: 3.97; IC50 [8]: 10 ± 0.71 µM; Calculated selectivity index SIB [8]: 1.96; Calculated selectivity index SIA [8]: 3.62; IC50 [9]: 36.3 ± 6.7 µM; IC50 [10]: 19.6 ± 2.95 µM |
| COc1cc(O)c(CC=C(C)C)c2c1C(=O)/C(=C/c1ccc(O)cc1)O2 [compound 2, (Z)-6,4′-dihydroxy-4-methoxy-7-prenylaurone] | 9.28 ± 0.5 µM | 4.79 | 5.69 | 11.3 ± 0.17 µM | 3.93 | 4.67 | 8.09 ± 2.21 µM | 5.50 | 6.53 | > 50 µM | 0.72 | 0.85 | 8.85 ± 4.85 µM | 5.02 | 5.97 | 7.83 ± 2.82 µM | 5.68 | 6.75 | 19.1 ± 9.27 µM | 2.33 | IC50 ([4]; listed as aurone (2)): 62.1 ± 16.5 µM; Calculated selectivity index SIB ([6]; listed as aurone (2)): 5.97; Calculated selectivity index SIA [7]: 2.77; IC50 [8]: 16.6 ± 3.29 µM; Calculated selectivity index SIB [8]: 2.68; Calculated selectivity index SIA [8]: 3.18; reduction of cytotoxic effect against normal cells relative to xanthohumol (1) ([9]; HLMEC, p < 0.05): 1.5 fold; IC50 [9]: 52.8 ± 8.03 µM; reduction of cytotoxic effect against normal cells relative to xanthohumol (1) ([10]; p < 0.05): 2.3 fold; IC50 [10]: 44.5 ± 5.16 µM |
